Values after ≈ are worked out from the molar mass of the structure shown. Starred links: 1 amine or outer side, 2 acyl side, 3 side chain; linkers in the order of their positions; H or OH if unused. Non-standard residues stand in square brackets, D forms with d. Residues, ends and D or L forms follow the SMILES beside them. NMePhe(3-(3-pyridyl)) = CN[C@@H](Cc1cccc(-c2cccnc2)c1)C(=O)O; X1 = CC[C@@H](C)[C@@H](O[*:1])C(=O)[*:2]; Hmp(2R,3S) = CC[C@H](C)[C@@H](O)C(=O)O; NMeVal(β-OH) = CN[C@H](C(=O)O)C(C)(C)O; NMeF = CN[C@@H](Cc1ccccc1)C(=O)O; aIle = CC[C@@H](C)[C@H](N)C(=O)O; NMeV = CN[C@H](C(=O)O)C(C)C
How the values were obtained:
[1] = Time dependent inhibition of Candida albicans ATCC 38247 membrane inositol phosphorylceramide synthase using ceramide as substrate
Candida albicans [2] = test: Antifungal activity against Candida albicans by broth dilution method; type: functional
Aspergillus fumigatus [3] = test: Antifungal activity against Aspergillus fumigatus by broth dilution method; type: functional
Sporothrix schenckii = test: Antifungal activity against Sporothrix schenckii ATCC 14284 by broth dilution method; type: functional
[4] = system: Trichophyton mentagrophytes; test: Antifungal activity against Trichophyton mentagrophytes ATCC MYA-4439 by broth dilution method; type: functional
[5] = system: Trichophyton mentagrophytes; test: Antifungal activity against Trichophyton mentagrophytes ATCC 28185 by broth dilution method; type: functional
Trichophyton rubrum = test: Antifungal activity against Trichophyton rubrum ATCC MYA-4438 by broth dilution method; type: functional
Candida albicans [6] = test: Antifungal activity against Candida albicans ATCC 90028 by broth dilution method; type: functional
Candida albicans [7] = test: Antifungal activity against Candida albicans ATCC 90029 by broth dilution method; type: functional
Candida albicans [8] = test: Antifungal activity against Candida albicans ATCC 10231 by broth dilution method; type: functional
Candida albicans [9] = test: Antifungal activity against Candida albicans ATCC 204276 by broth dilution method; type: functional
Candida albicans [10] = test: Antifungal activity against Candida albicans ATCC MYA-2732 by broth dilution method; type: functional
Candida albicans [11] = test: Antifungal activity against Candida albicans ATCC 24433 by broth dilution method; type: functional
[12] = system: Meyerozyma guilliermondii; test: Antifungal activity against Candida guilliermondii ATCC 34134 by broth dilution method; type: functional
Pichia kudriavzevii [13] = test: Antifungal activity against Candida krusei ATCC 14243 by broth dilution method; type: functional
Clavispora lusitaniae = test: Antifungal activity against Candida lusitaniae ATCC 66035 by broth dilution method; type: functional
Candida parapsilosis [14] = test: Antifungal activity against Candida parapsilosis ATCC 90018 by broth dilution method; type: functional; details: Lodderomyces parapsilosis
Candida parapsilosis [15] = test: Antifungal activity against Candida parapsilosis ATCC 22019 by broth dilution method; type: functional; details: Lodderomyces parapsilosis
Nakaseomyces glabratus = test: Antifungal activity against Candida glabrata ATCC 90030 by broth dilution method; type: functional
Candida tropicalis [16] = test: Antifungal activity against Candida tropicalis ATCC 750 by broth dilution method; type: functional
Candida tropicalis [17] = test: Antifungal activity against Candida tropicalis ATCC 90874 by broth dilution method; type: functional
Cryptococcus neoformans = test: Antifungal activity against Cryptococcus neoformans ATCC […] by broth dilution method; type: functional
Pichia kudriavzevii [18] = test: Antifungal activity against Issatchenkia orientalis ATCC 6258 by broth dilution method; type: functional
Saccharomyces cerevisiae = test: Antifungal activity against Saccharomyces cerevisiae ATCC 7754 by broth dilution method; type: functional
Aspergillus fumigatus [19] = test: Antifungal activity against Aspergillus fumigatus ATCC 20435 by broth dilution method; type: functional
Aspergillus fumigatus [20] = test: Antifungal activity against Aspergillus fumigatus ATCC MYA-32626 by broth dilution method; type: functional
Aspergillus flavus [21] = test: Antifungal activity against Aspergillus flavus ATCC 204304 by broth dilution method; type: functional
Aspergillus flavus [22] = test: Antifungal activity against Aspergillus flavus ATCC 22546 by broth dilution method; type: functional
Aspergillus flavus [23] = test: Antifungal activity against Aspergillus flavus ATCC 64025 by broth dilution method; type: functional
Aspergillus candidus = test: Antifungal activity against Aspergillus candidus ATCC 13686 by broth dilution method; type: functional
Aspergillus clavatus = test: Antifungal activity against Aspergillus clavatus ATCC 10058 by broth dilution method; type: functional
Aspergillus niger [24] = test: Antifungal activity against Aspergillus niger ATCC 16888 by broth dilution method; type: functional
Aspergillus niger [25] = test: Antifungal activity against Aspergillus niger ATCC 64028 by broth dilution method; type: functional
Aspergillus ochraceus = test: Antifungal activity against Aspergillus ochraceus ATCC 96919 by broth dilution method; type: functional
Aspergillus nidulans = test: Antifungal activity against Emericella nidulans ATCC 96921 by broth dilution method; type: functional
Fusarium oxysporum = test: Antifungal activity against Fusarium oxysporum ATCC 48112 by broth dilution method; type: functional
Rhizopus arrhizus = test: Antifungal activity against Rhizopus oryzae ATCC 11886 by broth dilution method; type: functional
[26] = Ratio of MIC for Aspergillus fumigatus to MIC for Candida albicans; type: functional

CC[C@@H](C)[C@@H]1NC(=O)[C@@H]2CCCN2C(=O)[C@H](Cc2ccccc2)N(C)C(=O)[C@H](Cc2ccccc2)NC(=O)[C@H](C(C)C)N(C)C(=O)[C@@H]([C@H](C)CC)OC(=O)[C@H](C(C)(C)O)N(C)C(=O)[C@H](CC(C)C)NC(=O)[C@H](C(C)C)N(C)C1=O [AUREOBASIDIN A] (cyclo(F[NMeF]P[aIle][NMeV]L[NMeVal(β-OH)][X1][NMeV]))
Ki [1]: 0.2 nM | MIC (Candida albicans [2]): < 0.05 µg/mL | MIC (Aspergillus fumigatus [3]): > 25 µg/mL

C[C@@H]1[C@H](O)[C@@H](C)/C=C/C=C/C=C/C=C/C=C/C=C/C=C/[C@H](O[C@@H]2O[C@H](C)[C@@H](O)[C@H](N)[C@@H]2O)C[C@@H]2O[C@](O)(C[C@@H](O)C[C@@H](O)[C@H](O)CC[C@@H](O)C[C@@H](O)CC(=O)O[C@H]1C)C[C@H](O)[C@H]2C(=O)O [AMPHOTERICIN B]
MIC (Sporothrix schenckii): 0.5 µg/mL (≈ 0.541 µM) | MIC [4]: 0.06 µg/mL (≈ 0.0649 µM) | MIC [5]: 0.06 µg/mL (≈ 0.0649 µM) | MIC (Trichophyton rubrum): 0.03 µg/mL (≈ 0.0325 µM) | MIC (Candida albicans [6]): 0.03 µg/mL (≈ 0.0325 µM) | MIC (Candida albicans [7]): 0.03 µg/mL (≈ 0.0325 µM) | MIC (Candida albicans [8]): 0.03 µg/mL (≈ 0.0325 µM) | MIC (Candida albicans [9]): 0.06 µg/mL (≈ 0.0649 µM) | MIC (Candida albicans [10]): 0.06 µg/mL (≈ 0.0649 µM) | MIC (Candida albicans [11]): 0.03 µg/mL (≈ 0.0325 µM) | MIC [12]: 0.008 µg/mL (≈ 0.00866 µM) | MIC (Pichia kudriavzevii [13]): 0.125 µg/mL (≈ 0.135 µM) | MIC (Clavispora lusitaniae): 0.015 µg/mL (≈ 0.0162 µM) | MIC (Candida parapsilosis [14]): 0.06 µg/mL (≈ 0.0649 µM) | MIC (Candida parapsilosis [15]): 0.125 µg/mL (≈ 0.135 µM) | MIC (Nakaseomyces glabratus): 0.03 µg/mL (≈ 0.0325 µM) | MIC (Candida tropicalis [16]): 0.06 µg/mL (≈ 0.0649 µM) | MIC (Candida tropicalis [17]): 0.06 µg/mL (≈ 0.0649 µM) | MIC (Cryptococcus neoformans): 0.015 µg/mL (≈ 0.0162 µM) | MIC (Pichia kudriavzevii [18]): 0.125 µg/mL (≈ 0.135 µM) | MIC (Saccharomyces cerevisiae): 0.06 µg/mL (≈ 0.0649 µM) | MIC (Aspergillus fumigatus [19]): 0.25 µg/mL (≈ 0.271 µM) | MIC (Aspergillus fumigatus [20]): 0.25 µg/mL (≈ 0.271 µM) | MIC (Aspergillus flavus [21]): 0.25 µg/mL (≈ 0.271 µM) | MIC (Aspergillus flavus [22]): 0.25 µg/mL (≈ 0.271 µM) | MIC (Aspergillus flavus [23]): 0.5 µg/mL (≈ 0.541 µM) | MIC (Aspergillus candidus): 0.03 µg/mL (≈ 0.0325 µM) | MIC (Aspergillus clavatus): 0.004 µg/mL (≈ 0.00433 µM) | MIC (Aspergillus niger [24]): 0.03 µg/mL (≈ 0.0325 µM) | MIC (Aspergillus niger [25]): 0.015 µg/mL (≈ 0.0162 µM) | MIC (Aspergillus ochraceus): 0.25 µg/mL (≈ 0.271 µM) | MIC (Aspergillus nidulans): 1 µg/mL (≈ 1.08 µM) | MIC (Fusarium oxysporum): 1 µg/mL (≈ 1.08 µM) | MIC (Rhizopus arrhizus): 0.03 µg/mL (≈ 0.0325 µM)

CC[C@H](C)[C@@H]1NC(=O)[C@@H]2CCCN2C(=O)[C@H](Cc2cccc(-c3cccnc3)c2)N(C)C(=O)[C@H](Cc2ccccc2)NC(=O)[C@H](C(C)C)N(C)C(=O)[C@@H]([C@@H](C)CC)OC(=O)[C@H](C(C)(C)O)N(C)C(=O)[C@H](CC(C)C)NC(=O)[C@H](C(C)C)N(C)C1=O (cyclo(F[NMePhe(3-(3-pyridyl))]PI[NMeV]L[NMeVal(β-OH)][Hmp(2R,3S)][NMeV]))
MIC (Sporothrix schenckii): > 64 µg/mL | MIC [4]: 0.5 µg/mL (≈ 0.424 µM) | MIC [5]: 1 µg/mL (≈ 0.849 µM) | MIC (Trichophyton rubrum): 2 µg/mL (≈ 1.7 µM) | MIC (Candida albicans [6]): 0.015 µg/mL (≈ 0.0127 µM) | MIC (Candida albicans [7]): 0.5 µg/mL (≈ 0.424 µM) | MIC (Candida albicans [8]): 1 µg/mL (≈ 0.849 µM) | MIC (Candida albicans [9]): 0.03 µg/mL (≈ 0.0255 µM) | MIC (Candida albicans [10]): 0.03 µg/mL (≈ 0.0255 µM) | MIC (Candida albicans [11]): 0.125 µg/mL (≈ 0.106 µM) | MIC [12]: 0.03 µg/mL (≈ 0.0255 µM) | MIC (Pichia kudriavzevii [13]): 0.06 µg/mL (≈ 0.0509 µM) | MIC (Clavispora lusitaniae): 0.125 µg/mL (≈ 0.106 µM) | MIC (Candida parapsilosis [14]): 0.03 µg/mL (≈ 0.0255 µM) | MIC (Candida parapsilosis [15]): 0.06 µg/mL (≈ 0.0509 µM) | MIC (Nakaseomyces glabratus): 0.03 µg/mL (≈ 0.0255 µM) | MIC (Candida tropicalis [16]): 0.03 µg/mL (≈ 0.0255 µM) | MIC (Candida tropicalis [17]): 0.015 µg/mL (≈ 0.0127 µM) | MIC (Cryptococcus neoformans): 0.03 µg/mL (≈ 0.0255 µM) | MIC (Pichia kudriavzevii [18]): 0.06 µg/mL (≈ 0.0509 µM) | MIC (Saccharomyces cerevisiae): 0.03 µg/mL (≈ 0.0255 µM) | Ratio [26]: > 10 | MIC (Candida albicans [2]): < 0.05 µg/mL | MIC (Aspergillus fumigatus [3]): < 0.94 µg/mL | MIC (Aspergillus fumigatus [19]): 1 µg/mL (≈ 0.849 µM) | MIC (Aspergillus fumigatus [20]): 2 µg/mL (≈ 1.7 µM) | MIC (Aspergillus flavus [21]): 1 µg/mL (≈ 0.849 µM) | MIC (Aspergillus flavus [22]): 2 µg/mL (≈ 1.7 µM) | MIC (Aspergillus flavus [23]): 1 µg/mL (≈ 0.849 µM) | MIC (Aspergillus candidus): 0.008 µg/mL (≈ 0.00679 µM) | MIC (Aspergillus clavatus): 0.03 µg/mL (≈ 0.0255 µM) | MIC (Aspergillus niger [24]): 0.125 µg/mL (≈ 0.106 µM) | MIC (Aspergillus niger [25]): 0.03 µg/mL (≈ 0.0255 µM) | MIC (Aspergillus ochraceus): 0.25 µg/mL (≈ 0.212 µM) | MIC (Aspergillus nidulans): 0.125 µg/mL (≈ 0.106 µM) | MIC (Fusarium oxysporum): > 64 µg/mL | MIC (Rhizopus arrhizus): > 64 µg/mL

From ChEMBL document CHEMBL3588806, “Generation of Broad-Spectrum Antifungal Drug Candidates from the Natural Product Compound Aureobasidin A” (ACS Med Chem Lett, 2015)
